Measured values from patent US12678433B2, “Compounds for treatment of hemolysis-and inflammasome-associated diseases” (New York Blood Center, Inc., priority 2020, dated 2026).

Experiments:
Assay type in all cases: cell-based, human
[1] = test system: CD27+ memory B cells from healthy donors; assay: 7-day stimulated memory B cell culture; conditions: different doses of hemin, 7 days
Source text: FIG. 6A-G. Effect of heme on memory plasmablast differentiation and IgG class-switch B cell development. FIG. 6A: Gating strategy for single live B cell analysis after culture. FIG. 6B: Fold change in CD38+ plasmablast cells in 7-day stimulated HD purified CD27+ memory B cells (as described for naïve B cell cultures in FIG. 1) in the presence of different doses of hemin relative to no hemin treatment. FIG. 6C: Histogram showing IgG expression levels in CD38+ plasmablasts from naïve B cell stimulated cultures. FIG. 6D: Fold change of IgG+ cell frequency in CD38+ plasmablasts in the presence of 2.5 μM or 5 μM hemin relative to no hemin treatment in stimulated naïve B cells from HD, Allo(−) and Allo(+) SCD patients. FIG. 6E: Naïve B cells from HD were cultured with 20% SCD patients' sera from Allo(−) or Allo(+) patients and stimulated with B cell activation cocktail for 7 days as described. Frequency of CD38+ plasmablasts is shown. FIG. 6F: Fold change of proliferated B cell frequency (within total, live B cells) in the presence of 2.5 μM or 5 μM hemin relative to no hemin treatment in stimulated naïve B cells from HD, Allo(−) and Allo(+) SCD patients. FIG. 6G: The change and fold change of live cell frequency in total 7-day stimulated HD B cell in the presence of different concentrations of hemin.
Cell isolation and culture.

[2] = test system: DOCK8/STAT3 signaling pathway; assay: Protein phosphorylation analysis by intracellular flow cytometry in stimulated B cells; conditions: heme 10 μM
Protocol: Protein phosphorylation analysis: B cells were short-term (maximum overnight) stimulated using the same B cell activation cocktail as above in the absence or presence of hemin (10 μM) after which B cells were fixed with the same volume pre-warmed Phosflow Fix buffer I (BD Bioscience) for 10 min at 37° C. After that, cells were washed twice with MACS buffer (400×g, 4° C., 5 min) followed by addition of 0.4 ml Perm buffer Ill (pre-chilled in −20° C., BD Bioscience) for 30 min on ice. After two washes with MACS buffer, samples were stained with staining buffer (anti-Pyk2(pY402), SYK(pY319), SRC(pY418), and STAT3(pY705), 100 fold diluted with MACS buffer) at 4° C. for 45 min, washed and analyzed by flow cytometry.
It has been shown that plasma free-heme can directly bind to DOCK8 protein and inhibit monocyte/macrophage phagocytosis through the DOCK8-Cdc42 signaling pathway. DOCK8/STAT3 signaling pathway activation, leading to phosphorylation of Pky2, SYK, SRC, and STAT3, has also been reported to be critical for B cell activation, although the effect of heme on this activation pathway was not examined. To test whether DOCK8/STAT3 signaling is inhibited by cell-free heme during B cell activation, we analyzed the phosphorylation of Pyk2, SYK, SRC, and STAT3 following short-term stimulation in the presence or absence of heme (10 μM) by intracellular flow cytometric analysis. […]

DOCK8 = DOCK8 expression and DOCK8hi/DOCK8lo subsets in stimulated B cells; conditions: heme 5 μM
Source text: We next tested the effect of cell-free heme on DOCK8 signaling during B cell differentiation. […] Heme treatment led to inhibition of CD27^hiBlimp-1^+ plasma cell differentiation (FIG. 2D, p=0.0195).

C=CC1=C(C)c2cc3[n-]c(cc4[n-]c(cc5nc(cc1n2)C(C)=C5C=C)c(C)c4CCC(=O)O)c(CCC(=O)O)c3C.[Fe+2] [heme, iron(III) complex of protoporphyrin IX]
effect on memory B cell proliferation or differentiation [1]: no effect | p-STAT3 ([2]; overnight samples): inhibitory effect | levels of phosphorylated (p)-Pyk2/SYK/SRC/STAT3 ([2]; short-term stimulation (15 min)): significant reduction | reduction in DOCK8hi subset (DOCK8): 61.6%±6.5% | reduction in DOCK8lo subset (DOCK8): 34.1%±5.9%
